# Measured values as given in patent US10076576B2, “Minimally toxic prodrugs” (priority 2012, dated 2018).
# Where “and” joins values, the source holds several entries; their conditions need not be identical. Identical values can stand only once.
# Tests used:
# tumor cell lines = conditions: cited from earlier work
# [1] = biological target: T1, CD10 (recombinant human neprilysin) (Homo sapiens, UniProt P08473); test: Reactivation assay with purified CD10; format: biochemical; conditions: 3 h at 37° C.; for % Metabolites released after 3 h (CD10 10 nM) / CD10 10 nM (cleavage +/−): 50 μM compound
# T1 construct: purchased R&D systems 1182-ZN
# T1 sequence (P08473 52-750 limits assumed): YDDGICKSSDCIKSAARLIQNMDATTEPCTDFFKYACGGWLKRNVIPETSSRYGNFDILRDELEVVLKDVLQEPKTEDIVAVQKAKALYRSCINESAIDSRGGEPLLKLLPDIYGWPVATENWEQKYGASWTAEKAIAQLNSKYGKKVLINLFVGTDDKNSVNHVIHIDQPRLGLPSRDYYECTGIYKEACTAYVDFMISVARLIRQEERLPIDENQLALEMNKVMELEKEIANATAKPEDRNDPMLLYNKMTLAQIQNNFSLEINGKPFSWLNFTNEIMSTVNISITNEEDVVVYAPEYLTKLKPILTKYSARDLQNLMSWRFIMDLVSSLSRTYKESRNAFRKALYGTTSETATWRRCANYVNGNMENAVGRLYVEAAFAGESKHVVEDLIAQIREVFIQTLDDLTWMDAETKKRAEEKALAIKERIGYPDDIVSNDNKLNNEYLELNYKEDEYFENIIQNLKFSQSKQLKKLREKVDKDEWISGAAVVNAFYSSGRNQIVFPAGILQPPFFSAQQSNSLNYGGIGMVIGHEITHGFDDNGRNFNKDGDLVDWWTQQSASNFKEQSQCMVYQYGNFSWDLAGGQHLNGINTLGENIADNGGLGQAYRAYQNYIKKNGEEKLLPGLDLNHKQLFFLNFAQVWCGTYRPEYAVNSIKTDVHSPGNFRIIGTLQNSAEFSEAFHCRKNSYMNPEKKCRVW
# [2] = biological target: T2, TOP (recombinant human thimet oligopeptidase) (Homo sapiens, UniProt P52888); test: Reactivation assay with purified TOP; format: biochemical; conditions: 3 h at 37° C.; for % Metabolites released after 3 h (TOP 5 nM) / TOP 5 nM (cleavage +/−): 50 μM compound
# T2 construct: purchased R&D systems 3439-ZN
# T2 sequence (P52888 whole entry): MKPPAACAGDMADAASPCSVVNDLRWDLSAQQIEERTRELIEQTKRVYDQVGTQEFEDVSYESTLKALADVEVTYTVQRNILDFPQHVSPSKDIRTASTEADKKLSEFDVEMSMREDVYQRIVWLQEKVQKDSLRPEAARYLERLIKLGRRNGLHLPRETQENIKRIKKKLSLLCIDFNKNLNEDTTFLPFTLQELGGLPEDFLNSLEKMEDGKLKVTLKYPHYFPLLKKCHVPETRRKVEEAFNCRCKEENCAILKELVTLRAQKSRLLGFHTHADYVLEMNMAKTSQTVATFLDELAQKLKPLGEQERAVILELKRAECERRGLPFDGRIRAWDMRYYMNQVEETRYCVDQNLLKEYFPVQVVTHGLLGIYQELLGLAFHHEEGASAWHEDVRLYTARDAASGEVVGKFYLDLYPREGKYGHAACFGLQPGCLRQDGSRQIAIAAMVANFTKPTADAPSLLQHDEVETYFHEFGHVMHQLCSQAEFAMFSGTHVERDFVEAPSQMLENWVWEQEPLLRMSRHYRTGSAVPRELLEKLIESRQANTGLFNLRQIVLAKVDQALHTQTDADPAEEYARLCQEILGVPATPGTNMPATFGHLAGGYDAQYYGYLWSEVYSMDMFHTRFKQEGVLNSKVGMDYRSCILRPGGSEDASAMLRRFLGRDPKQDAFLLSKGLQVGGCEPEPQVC
# Method: (§1) TOP (recombinant human thimet oligopeptidase, R&D systems, Ref 3439-ZN) was diluted at 10 nM in a solution of 50 mM Tris-HCl pH 7.4/0.5M NaCl/0.1M DTT. CD26 and FAP were diluted at 1 μg/mL in a Tris-HCl pH 7.5 buffer. Reactions were initiated by addition of 50 μM of each compound to enzymes solutions (1 V enzyme solution+1 V 100 μM drug solution). Samples were incubated for 0, 1, or 3 hours at 37° C. in a water bath in the presence of purified enzymes. Fifty μL of sample were collected at each time point and processed as described above for human plasma. Activation of Suc-βALAL-dox was tested in parallel as a reference.
# [3] = system: LS-174T tumor cell secreted peptidases; test: Reactivation assay in LS174T tumor cell conditioned medium; format: biochemical, human; conditions: for activation by tumor cell secreted enzymes (in words): LS174T tumor cell conditioned medium
# Method: Sub-confluent cultures of LS-174T tumor cells were washed twice with a saline phosphate buffer solution, and fresh culture medium (DMEM-F12 without phenol red) containing 0.02% bovine serum albumin is added (100 μl/cm^2). After 24 hours incubation, the conditioned medium is collected, centrifuged for 10 minutes at 300 g, buffered with 1 M Tris-HCl, pH 7.4 (1 volume of buffer+19 volumes of medium) and concentrated 20 times by […] (cutoff threshold of 10 kDa).
# Drug compounds (50 μM) were incubated for 0, 1, 3 or 5 hours at 37° C. in the presence of freshly prepared LS174T tumor cell conditioned medium. Fifty μL of sample were collected at each time point and processed as described above for human plasma.
# CD26 = CD26 (Homo sapiens, UniProt P27487); test: Reactivation assay with purified CD26; format: biochemical; conditions: 3 h incubation at 37° C.
# CD26, sequence (P27487 whole entry): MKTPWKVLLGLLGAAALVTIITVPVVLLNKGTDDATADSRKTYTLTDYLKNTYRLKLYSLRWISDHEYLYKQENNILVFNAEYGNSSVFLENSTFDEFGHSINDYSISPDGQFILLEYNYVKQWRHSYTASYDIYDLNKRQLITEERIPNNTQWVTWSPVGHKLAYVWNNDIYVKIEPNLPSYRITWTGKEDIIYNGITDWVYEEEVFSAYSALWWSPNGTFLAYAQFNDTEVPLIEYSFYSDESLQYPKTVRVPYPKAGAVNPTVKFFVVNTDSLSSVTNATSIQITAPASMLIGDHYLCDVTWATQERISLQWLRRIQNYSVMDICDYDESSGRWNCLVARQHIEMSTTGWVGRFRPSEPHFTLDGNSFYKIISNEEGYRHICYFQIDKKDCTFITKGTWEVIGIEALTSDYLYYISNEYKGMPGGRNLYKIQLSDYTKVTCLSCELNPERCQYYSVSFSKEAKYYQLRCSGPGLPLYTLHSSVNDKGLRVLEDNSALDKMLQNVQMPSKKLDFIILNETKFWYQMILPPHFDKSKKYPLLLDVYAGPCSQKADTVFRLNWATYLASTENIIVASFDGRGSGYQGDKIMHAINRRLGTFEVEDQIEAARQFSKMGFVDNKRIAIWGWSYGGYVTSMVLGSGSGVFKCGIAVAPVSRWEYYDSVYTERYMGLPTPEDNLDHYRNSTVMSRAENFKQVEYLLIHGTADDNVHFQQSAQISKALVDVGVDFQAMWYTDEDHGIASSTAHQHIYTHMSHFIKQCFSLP
# Method: as §1
# FAP = biological target: T3, FAP (Homo sapiens, UniProt Q12884); test: Reactivation assay with purified FAP; format: biochemical; conditions: 3 h incubation at 37° C.
# T3 sequence (Q12884 1-760): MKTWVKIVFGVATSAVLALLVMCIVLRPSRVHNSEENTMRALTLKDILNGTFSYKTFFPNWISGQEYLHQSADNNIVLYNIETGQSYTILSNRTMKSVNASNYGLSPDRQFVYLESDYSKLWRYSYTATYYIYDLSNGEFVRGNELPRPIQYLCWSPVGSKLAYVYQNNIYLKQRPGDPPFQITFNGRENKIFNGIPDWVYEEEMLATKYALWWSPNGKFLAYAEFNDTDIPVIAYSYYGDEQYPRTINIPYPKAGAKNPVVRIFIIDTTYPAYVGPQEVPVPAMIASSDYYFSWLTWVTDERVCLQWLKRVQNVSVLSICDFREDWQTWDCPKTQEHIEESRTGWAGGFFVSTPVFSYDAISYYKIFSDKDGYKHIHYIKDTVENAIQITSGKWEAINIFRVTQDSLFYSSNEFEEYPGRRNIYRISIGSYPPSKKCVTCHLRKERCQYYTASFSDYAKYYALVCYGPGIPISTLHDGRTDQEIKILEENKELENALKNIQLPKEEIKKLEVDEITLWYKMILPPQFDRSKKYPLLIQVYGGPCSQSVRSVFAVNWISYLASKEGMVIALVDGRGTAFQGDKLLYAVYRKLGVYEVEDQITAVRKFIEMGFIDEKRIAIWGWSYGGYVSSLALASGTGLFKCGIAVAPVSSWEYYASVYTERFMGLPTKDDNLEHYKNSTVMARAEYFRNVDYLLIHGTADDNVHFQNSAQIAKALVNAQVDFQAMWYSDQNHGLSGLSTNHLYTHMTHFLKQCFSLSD
# Method: as §1
# [4] = Stability in citrated human plasma; conditions: 5 hours incubation at 37° C. in citrated human plasma (pH7), 50 μM
# Method: The drug conjugates (50 μM) were mixed with human plasma and incubated for 5 hours at 37° C. in a water bath. […] Supernatant was collected.
# [5] = Stability in citrated human blood; conditions: 5 hours incubation at 37° C. in citrated human blood, 50 μM
# [6] = biological target: dihydrofolate reductase (DHFR) (Homo sapiens, UniProt P00374); conditions: cited from earlier work
# dihydrofolate reductase (DHFR), sequence (P00374 whole entry, species assumed): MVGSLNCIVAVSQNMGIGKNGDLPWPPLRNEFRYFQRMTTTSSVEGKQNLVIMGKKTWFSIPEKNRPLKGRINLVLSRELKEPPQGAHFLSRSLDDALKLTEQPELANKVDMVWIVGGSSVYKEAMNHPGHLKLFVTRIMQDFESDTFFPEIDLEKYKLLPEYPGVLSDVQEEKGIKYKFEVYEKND
# [7] = In vivo toxicity after single iv bolus injection (body weight); parameters: species or system OF-1 mice
# Method: FIG. 1. Effect of PhAc-peptide-Dox conjugates on the body weight of OF-1 normal mice (n=4). […] Results represent the mean body weight evolution.
# The in vivo toxicity was evaluated by monitoring body weight.
Compound,cleavage by CD10 (in words) [1],% Metabolites released after 3 h (CD10 10 nM) [1],% Metabolites released after 3 h (TOP 5 nM) [2],"% Metabolites released after 5 h (LS174T CM20xcc) ([3]; 5 h at 37° C., 50 μM compound) [%]",activation by tumor cell secreted enzymes (in words) [3],also measured
COc1cc2cc(c1Cl)N(C)C(=O)C[C@H](OC(=O)[C@H](C)N(C)C(C)=O)[C@]1(C)O[C@H]1[C@H](C)[C@@H]1C[C@@](O)(NC(=O)O1)[C@H](OC)/C=C/C=C(\C)C2 [Maytansine],–,–,–,–,–,fold higher cytotoxicity than the Vinca alkaloids (tumor cell lines): about 100 fold; fold higher toxicity than doxorubicin (tumor cell lines): about 1000 fold
PhAc-GPGP-doxorubicin,not or very slightly activated,0%,0%,0,not activated,cleavage by TOP (in words) [2]: not cleaved
"COc1cccc2c1C(=O)c1c(O)c3c(c(O)c1C2=O)C[C@@](O)(C(=O)CO)C[C@@H]3O[C@H]1C[C@H](NC(=O)[C@@H]2CCCN2C(=O)CN)[C@H](O)[C@H](C)O1 [GP-Dox, NH2-Gly-Pro-Doxorubicin]",–,–,–,–,–,conversion to Dox by CD26 (CD26): 97%; conversion to Dox by FAP (FAP): 62%
PhAc-KLGP-doxorubicin,not or very slightly activated,<5%,31% and 31 ± 5%,39 ± 13,mainly GP-Dox is detected,CD10 10 nM (cleavage +/−) [1]: −* (*less than 5% of metabolites detected)
PhAc-DLGP-doxorubicin,not or very slightly activated,0%,0%,0,not activated,cleavage by TOP (in words) [2]: not cleaved
"COc1cccc2c1C(=O)c1c(O)c3c(c(O)c1C2=O)CC(O)(C(=O)CO)CC3OC1CC(NC(=O)C(Cc2ccccc2)NC(=O)C(C)NC(=O)C(CC(C)C)NC(=O)C(C)NC(=O)CP(=O)(O)O)C(O)C(C)O1 (stereo not shown) [PhAc-ALAF-Dox, PhAc-ALAF-doxorubicin]",moderately cleaved,24 ± 5%,<5%,32 ± 15,activated into F-Dox,% metabolites released: Dox [4]: 0%; % metabolites released: F-Dox [4]: 2%; total % metabolites [4]: 2%; % metabolites released: Dox [5]: 5%; % metabolites released: F-Dox [5]: 5%; total % metabolites [5]: 10%; TOP 5 nM (cleavage +/−) [2]: −* (*less than 5% of metabolites detected)
PhAc-AIGP-doxorubicin,–,18% and 18 ± 3%,<5%,3 ± 3,not activated,"cleavage by TOP (in words) [2]: not cleaved; TOP 5 nM (cleavage +/−) [2]: −* (*less than 5% of metabolites detected); LS174T CM20xcc (activation +/−) ([3]; 5 h at 37° C., conditioned medium concentrated 20 times, 50 μM compound): −* (*less than 5% of metabolites detected)"
Methotrexate,–,–,–,–,–,affinity for DHFR relative to folate [6]: ~1000 fold
"COc1cccc2c1C(=O)c1c(O)c3c(c(O)c1C2=O)CC(O)(C(=O)CO)CC3OC1CC(NC(=O)C(Cc2ccccc2)NC(=O)C2CCCN2C(=O)C(CC(C)C)NC(=O)C(C)NC(=O)CP(=O)(O)O)C(O)C(C)O1 (stereo not shown) [PhAc-ALPF-Dox, PhAc-ALPF-doxorubicin]",–,0%,<5%,11 ± 6,activated into F-Dox,% metabolites released: Dox [4]: 0%; % metabolites released: F-Dox [4]: 0%; total % metabolites [4]: 0%; % metabolites released: Dox [5]: 4%; % metabolites released: F-Dox [5]: 1%; total % metabolites [5]: 5%; TOP 5 nM (cleavage +/−) [2]: −* (*less than 5% of metabolites detected)
"COc1cccc2c1C(=O)c1c(O)c3c(c(O)c1C2=O)CC(O)(C(=O)CO)CC3OC1CC(NC(=O)C(CC(C)C)NC(=O)C(C)NC(=O)C(CC(C)C)NC(=O)C(C)NC(=O)CP(=O)(O)O)C(O)C(C)O1 (stereo not shown) [PhAc-ALAL-Dox, PhAc-ALAL-doxorubicin]",not efficiently cleaved,–,44% and 44 ± 6%,65 ± 19,activated,% metabolites released: AL-Dox [4]: 0%; % metabolites released: Dox [4]: <1%; % metabolites released: L-dox [4]: 2%; total % metabolites [4]: 2%; CD10 10 nM (cleavage +/−) [1]: −* (*less than 5% of metabolites detected); % metabolites released: AL-Dox [5]: 0%; % metabolites released: Dox [5]: 9%; % metabolites released: L-dox [5]: 6%; total % metabolites [5]: 15%; body weight loss (in words) ([7]; 80 μmol/kg single iv): No significant body weight loss; toxicity (in words) ([7]; 160 μmol/kg single iv): high toxicity
PhAc-TSGP-doxorubicin,not or very slightly activated,0%,38% and 38 ± 2%,35 ± 18,mainly GP-Dox is detected,–
